Measured values published in patent US20150258059A1, “ANTIMICROBIAL AND RADIOPROTECTIVE COMPOUNDS” (BioDiem, Ltd, priority 2001, published 2015).
≈ marks a conversion by molar mass, not a printed value.

Legend:
[1] = test system: C. guillermondii RMIT 176; assay: M38-P microdilution MIC/MFC; type: cell-based; settings: Table 16, 24 h, 35° C.
Epidermophyton floccosum = assay: NCCLS broth macro-dilution MIC/MFC (RPMI); type: cell-based; settings: Table 10, 7 day, 30° C.
Rhodotorula rubra = assay: NCCLS broth macro-dilution MIC/MFC (RPMI); type: cell-based; settings: Table 10, 4 day, 30° C.
C. tropicalis RMIT 181 = assay: M38-P microdilution MIC/MFC; type: cell-based; settings: 35° C.
C. krusei RMIT 177 = assay: M38-P microdilution MIC/MFC; type: cell-based; settings: 35° C.
C. parapsilosis RMIT 178 = assay: M38-P microdilution MIC/MFC; type: cell-based; settings: 35° C.
Trichophyton rubrum = assay: NCCLS broth macro-dilution MIC/MFC (RPMI); type: cell-based; settings: Table 10, 7 day, 30° C.
Candida albicans = assay: NCCLS broth macro-dilution MIC/MFC (RPMI); type: cell-based; settings: Table 10, 4 day, 30° C.
Cryptococcus neoformans = assay: M38-P microdilution MIC/MFC; type: cell-based; settings: Cryptococcus neoformans, Table 16, 24 h, 35° C., read-out: MIC
Microsporum gypseum = assay: NCCLS broth macro-dilution MIC/MFC (RPMI); type: cell-based; settings: Table 10, 7 day, 30° C.
Fusarium graminearum = assay: microbe, parasite or virus in culture; type: cell-based
C. glabrate RMIT 157 = assay: M38-P microdilution MIC/MFC; type: cell-based; settings: Table 16, 24 h, 35° C.
[2] = in vivo; cited from earlier work

`Clc1ccc(COC(Cn2ccnc2)c2ccc(Cl)cc2Cl)c(Cl)c1` (stereo not drawn) [Miconazole] showed an MMC [1] of 1 µg/mL, an MIC ([1]; read-out: MIC) of 1 µg/mL (≈ 2.4 µM) and an MIC (Epidermophyton floccosum; Epidermophyton floccosum, 168 h) of 0.25 µg/mL (≈ 0.601 µM). For the same molecule, the MMC (Epidermophyton floccosum) was 0.25 µg/mL, the MIC (Rhodotorula rubra; Rhodotorula, 96 h) was 8 µg/mL (≈ 19.2 µM) and the MMC (Rhodotorula rubra) was 32 µg/mL. The MIC (C. tropicalis RMIT 181; Candida tropicalis, RMIT181, Table 16, 24 h, read-out: MIC) was 1 µg/mL (≈ 2.4 µM), the MMC (C. tropicalis RMIT 181; Table 16, 24 h) was 2 µg/mL and the MIC (C. krusei RMIT 177; Pichia kudriavzevii, RMIT177, Table 16, 24 h, read-out: MIC) was 2 µg/mL (≈ 4.81 µM). The MMC (C. krusei RMIT 177; Table 16, 24 h) was 2 µg/mL, the MIC (C. parapsilosis RMIT 178; Lodderomyces parapsilosis, RMIT178, Table 16, 24 h, read-out: MIC) was 0.5 µg/mL (≈ 1.2 µM) and the MMC (C. parapsilosis RMIT 178; Table 16, 24 h) was 0.5 µg/mL. The MMC (Trichophyton rubrum) was 64 µg/mL, the MIC (Trichophyton rubrum; Trichophyton rubrum, 168 h) was 1 µg/mL (≈ 2.4 µM) and the MIC (Candida albicans; Candida albicans, 96 h) was 4 µg/mL (≈ 9.61 µM). The MMC (Candida albicans) was 8 µg/mL, the MIC (Cryptococcus neoformans) was 4 µg/mL (≈ 9.61 µM) and the MIC (Microsporum gypseum; Nannizzia gypsea, 168 h) was 4 µg/mL (≈ 9.61 µM). The MMC (Microsporum gypseum) was 64 µg/mL, the MIC (Fusarium graminearum; Fusarium graminearum, 168 h) was 32 µg/mL (≈ 76.9 µM) and the MMC (Fusarium graminearum; Table 10, 7 day, 30° C.) was 32 µg/mL. The MMC (C. glabrate RMIT 157) was 0.5 µg/mL and the MIC (C. glabrate RMIT 157; read-out: MIC) was 0.25 µg/mL (≈ 0.601 µM).
For `NCCSSCCN` [cystamine], the index of protection [2] is listed as no more than 1.45 and the side effect [2] is listed as “causes diarrhea”.
In the case of `NCCS` [mercamine, β-mercaptoethylamine], the “duration of radiation protecting activity” value [2] is given as 15 to 30 min and the period of action [2] is given as 0.5 to 1 h.
